Data taken from US9079895B2, “Morpholino compounds, uses and methods” (University of Dundee, priority 2012, dated 2015).

Tests used:
Settings in all cases: average of at least two experiments
5HT1e receptor = 5HT1e receptor (Homo sapiens (Human), UniProt P28566); assay: Secondary radioligand binding assay, 5HT1e; set-up: key: “—” indicates that a binding interaction was not detected;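 note: competition binding against a radioligand on membranes from transfected cell lines, 1.5 h at room temperature, bound radioactivity counted by liquid scintillation after filtration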
Chain of 5HT1e receptor (P28566 whole entry): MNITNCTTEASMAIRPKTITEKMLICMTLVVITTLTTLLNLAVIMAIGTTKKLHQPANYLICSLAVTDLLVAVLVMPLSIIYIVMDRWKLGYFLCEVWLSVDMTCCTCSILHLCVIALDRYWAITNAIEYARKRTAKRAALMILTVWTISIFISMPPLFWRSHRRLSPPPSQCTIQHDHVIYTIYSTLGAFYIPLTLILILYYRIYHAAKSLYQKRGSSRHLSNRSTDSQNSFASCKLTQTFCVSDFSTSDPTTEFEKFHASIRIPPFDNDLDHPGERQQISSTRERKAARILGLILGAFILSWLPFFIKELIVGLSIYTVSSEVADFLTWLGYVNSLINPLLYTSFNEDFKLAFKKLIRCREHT
Protocol: (§1) The 250 μl reactions are incubated at room temperature and shielded from light (to prevent photolysis of light-sensitive ligands) for 1.5 hours, then harvested by rapid filtration onto Whatman GF/B glass fiber filters pre-soaked with 0.3% polyethyleneimine using a 96-well Brandel harverster. Four rapid 500 μl washes are performed with chilled Standard Binding Buffer to reduce non-specific binding. Filters are placed in 6 ml scintillation tubes and allowed to dry overnight. The next day, 4 ml of EcoScint scintillation cocktail (National Diagnostics) are added to each tube. The tubes are capped, labeled, and counted by liquid scintillation counting. […] The filter mats are dried, then scintillant is melted onto the filters and the radioactivity retained on the filters is counted in a Microbeta scintillation counter.

5HT2a receptor = 5HT2a receptor (Homo sapiens (Human), UniProt P28223); assay: Secondary radioligand binding assay, 5HT2a
Chain of 5HT2a receptor (P28223 whole entry): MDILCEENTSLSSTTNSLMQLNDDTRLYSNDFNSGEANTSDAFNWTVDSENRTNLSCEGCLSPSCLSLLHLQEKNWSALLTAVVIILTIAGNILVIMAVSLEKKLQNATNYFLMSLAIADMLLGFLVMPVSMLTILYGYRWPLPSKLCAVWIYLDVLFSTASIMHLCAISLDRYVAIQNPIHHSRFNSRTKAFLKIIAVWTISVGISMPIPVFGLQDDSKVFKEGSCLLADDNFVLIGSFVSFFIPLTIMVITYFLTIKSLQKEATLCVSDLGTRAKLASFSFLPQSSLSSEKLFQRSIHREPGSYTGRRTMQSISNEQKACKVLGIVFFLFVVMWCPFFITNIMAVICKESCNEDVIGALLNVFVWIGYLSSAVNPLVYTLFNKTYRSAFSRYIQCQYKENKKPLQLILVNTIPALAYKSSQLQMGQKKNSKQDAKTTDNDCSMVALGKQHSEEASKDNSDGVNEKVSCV
Protocol: as §1

5HT2b receptor = 5HT2b receptor (Homo sapiens (Human), UniProt P41595); assay: Secondary radioligand binding assay, 5HT2b; set-up: key to Ki 5HT2b: “—” indicates that a binding interaction was not detected;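 note: competition binding against a radioligand on membranes from transfected cell lines, 1.5 h incubation at room temperature, filter-retained radioactivity counted by liquid scintillation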
Chain of 5HT2b receptor (P41595 whole entry): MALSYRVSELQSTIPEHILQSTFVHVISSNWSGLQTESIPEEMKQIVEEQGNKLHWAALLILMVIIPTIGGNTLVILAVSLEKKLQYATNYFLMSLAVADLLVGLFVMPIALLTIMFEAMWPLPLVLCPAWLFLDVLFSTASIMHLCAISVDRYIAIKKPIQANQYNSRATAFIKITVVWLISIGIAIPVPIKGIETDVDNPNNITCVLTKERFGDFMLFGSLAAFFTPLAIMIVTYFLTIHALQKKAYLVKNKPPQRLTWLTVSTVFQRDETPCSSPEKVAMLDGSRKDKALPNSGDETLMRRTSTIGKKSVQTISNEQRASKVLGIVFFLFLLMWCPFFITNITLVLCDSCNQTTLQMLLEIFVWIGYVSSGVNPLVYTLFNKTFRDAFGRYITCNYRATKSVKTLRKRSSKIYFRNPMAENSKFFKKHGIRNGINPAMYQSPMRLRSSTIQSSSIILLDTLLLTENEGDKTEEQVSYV
Protocol: as §1

5HT4 receptor = 5HT4 receptor (Homo sapiens (Human), UniProt Q13639); assay: Secondary radioligand binding assay, 5HT4; set-up: key: “—” indicates that a binding interaction was not detected
Chain of 5HT4 receptor (Q13639 whole entry): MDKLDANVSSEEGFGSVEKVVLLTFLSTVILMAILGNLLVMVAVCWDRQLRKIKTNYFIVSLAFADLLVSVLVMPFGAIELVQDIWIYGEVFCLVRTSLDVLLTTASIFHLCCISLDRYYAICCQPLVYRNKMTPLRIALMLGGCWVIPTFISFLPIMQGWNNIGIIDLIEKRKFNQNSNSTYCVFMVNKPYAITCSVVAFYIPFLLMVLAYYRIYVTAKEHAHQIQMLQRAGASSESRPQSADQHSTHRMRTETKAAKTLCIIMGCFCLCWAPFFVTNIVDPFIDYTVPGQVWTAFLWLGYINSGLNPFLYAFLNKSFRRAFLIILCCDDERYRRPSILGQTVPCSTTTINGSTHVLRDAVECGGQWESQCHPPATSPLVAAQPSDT
Protocol: 1. Secondary Radioligand Binding Assays The detailed experimental protocols for the radioligand and functional receptor assays are available on the NIMH PDSP website at http://pdsp.med.unc.edu/UNC-CH %20Protocol %20Book.pdf. Assay Buffer: Standard Binding Buffer (50 mM Tris-HCl, 10 mM MgCl2, 1 mM EDTA, pH 7.4) Membrane Fraction Source: Transiently or stably transfected cell lines (e.g., HEK293, COS, CHO, NIH3T3) Protocol adapted from Roth et al. (1986), J. Pharmacol. Exp. Ther., 238(2): 480-485; and Roth et al. (1994), J. Pharmacol. Exp. Ther., 268(3): 1403-1410. […] A similar stock of a reference compound (positive control) is also prepared. […] Radioligand is diluted to five times the assay concentration (see Table 18) in Standard Binding Buffer. Typically, the assay concentration of radioligand is a value between one half the KD and the KD of a particular radioligand at its target. 50 μl aliquots of radioligand are dispensed into the wells of a 96-well plate containing 100 μl of Standard Binding Buffer. Then, duplicate 50 μl aliquots of the test and reference compound dilutions are added. Finally, crude membrane fractions of cells expressing recombinant target (prepared from 10 cm plates by harvesting PBS-rinsed monolayers, resuspending and lysing in chilled, hypotonic 50 mM Tris-HCl, pH 7.4, centrifuging at 20,000×g, decanting the supernatant and storing at −80° C.; typically, one 10 cm plate provides sufficient material for 24 wells), are resuspended in 3 ml of chilled Standard Binding Buffer and homogenized by several passages through a 26 gauge needle, then 50 μl are dispensed into each well. […] Four rapid 500 μl washes are performed with chilled Standard Binding Buffer to reduce non-specific binding. Filters are placed in 6 ml scintillation tubes and allowed to dry overnight. The next day, 4 ml of EcoScint scintillation cocktail (National Diagnostics) are added to each tube. The tubes are capped, labeled, and counted by liquid scintillation counting. For higher throughput assays, bound radioactivity is harvested onto 0.3% polyethyleneimine-treated, 96-well filter mats using a 96-well Filtermate harvester. The filter mats are dried, then scintillant is melted onto the filters and the radioactivity retained on the filters is counted in a Microbeta scintillation counter. Raw data (dpm) representing total radioligand binding (i.e. specific+non-specific binding) are plotted as a function of the logarithm of the molar concentration of the competitor (i.e. test or reference compound).

[1] = target: Alpha1A adrenergic receptor (Homo sapiens (Human), UniProt P35348); assay: Secondary radioligand binding assay, Alpha1A; set-up: key to Ki Alpha1A: “—” indicates that a binding interaction was not detected
Chain of Alpha1A adrenergic receptor (P35348 whole entry): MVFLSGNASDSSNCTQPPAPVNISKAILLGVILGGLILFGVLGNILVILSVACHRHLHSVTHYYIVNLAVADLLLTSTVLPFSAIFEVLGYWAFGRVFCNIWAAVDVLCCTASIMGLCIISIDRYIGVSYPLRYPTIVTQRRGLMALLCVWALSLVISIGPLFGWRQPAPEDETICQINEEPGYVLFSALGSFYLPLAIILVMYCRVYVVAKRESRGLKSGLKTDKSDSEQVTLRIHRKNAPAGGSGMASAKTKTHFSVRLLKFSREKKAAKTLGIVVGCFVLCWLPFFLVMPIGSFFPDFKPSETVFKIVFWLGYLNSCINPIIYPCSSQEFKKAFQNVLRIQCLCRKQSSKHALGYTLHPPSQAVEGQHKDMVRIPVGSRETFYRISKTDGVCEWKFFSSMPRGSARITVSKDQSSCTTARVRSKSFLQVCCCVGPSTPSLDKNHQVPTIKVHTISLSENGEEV
Excerpt: 1. Secondary Radioligand Binding Assays The detailed experimental protocols for the radioligand and functional receptor assays are available on the NIMH PDSP website at http://pdsp.med.unc.edu/UNC-CH %20Protocol %20Book.pdf. Raw data (dpm) representing total radioligand binding (i.e. specific+non-specific binding) are plotted as a function of the logarithm of the molar concentration of the competitor (i.e. test or reference compound). […] C. Adrenergic Receptors: α1A, α1B, α2A, α2B, α2C, β1, β2, β3 Assay Buffers: For α1 receptors, α1 Binding Buffer (20 mM Tris-HCl, 145 mM NaCl, pH 7.4); for α2 receptors, α2 Binding Buffer (50 mM Tris-HCl, 5 mM MgCl2, pH 7.7); for β receptors, β Binding Buffer (50 mM Tris-HCl, 3 mM MnCl2, pH 7.7) Membrane Fraction Source: Transiently or stably transfected cell lines (e.g. HEK293, COS, CHO, NIH3T3) Protocol adapted from Arango et al. […] (1990), Gen. Psychiatry, 47: 1038-1047. The method is carried out in the manner described for the serotonin receptor assay above, except where described below. Eleven dilutions (5× assay concentration) of the test and reference (see Table 20) compounds are prepared in the appropriate buffer by serial dilution, as previously described. Radioligand is diluted to five times the assay concentration (see Table 21) in the appropriate buffer. […] Four rapid 500-μl washes are performed with chilled distilled water (for α1 and β receptors) or 0.1% polyethyleneimine (for α2 receptors) to reduce non-specific binding. Filters are placed in 6 ml scintillation tubes and allowed to dry overnight and the samples are treated to obtain data as described above. [table]

Row | SMILES | Ki 5HT1e (5HT1e receptor) | Ki (5HT2a receptor) [nM] | Ki 5HT2b (5HT2b receptor) | Ki 5HT4 (5HT4 receptor) | Ki Alpha1A [1] | Ki (5HT2b receptor) [nM]
1 | c1cncc(OC[C@@H]2CN(CCN3CCc4ccccc43)CCO2)c1 [Compound 21s, (S)-4-(2-(Indolin-1-yl)ethyl)-2-((pyridin-3-yloxy)methyl)morpholine] | — | 3540 | — | — | — | 
2 | O=C(CN1CCO[C@@H](COc2cccc(Cl)c2)C1)N1CCc2ccccc21 [Compound 22r, (R)-2-(2-((3-chlorophenoxy)methyl)morpholino)-1-(indolin-1-yl)ethanone] | — | 2070 |  | — | — | 2360
3 | O=C(CN1CCO[C@H](COc2cccc(Cl)c2)C1)N1CCc2ccccc21 [Compound 22s, (S)-2-(2-((3-Chlorophenoxy)methyl)morpholino)-1-(indolin-1-yl)ethanone] | — | 2720 |  | — | — | 1100
4 | COc1cccc(OC[C@@H]2CN(CC(=O)N3CCc4ccccc43)CCO2)c1 [Compound 24s, (S)-1-(Indolin-1-yl)-2-(2-((3-methoxyphenoxy)methyl)morpholino)ethanone] | — | 1940 |  | — | — | 1650
5 | Cc1ccc(OC[C@H]2CN(CCN3CCc4ccccc43)CCO2)cn1 [Compound 28r, (R)-4-(2-(Indolin-1-yl)ethyl)-2-(((6-methylpyridin-3-yl)oxy)methyl)morpholine] | — | 1480 | — | — | — | 
6 | Cc1ccnc(C)c1OC[C@H]1CN(CCN2CCc3ccccc32)CCO1 [Compound 29r, (R)-2-(((2,4-Dimethylpyridin-3-yl)oxy)methyl)-4-(2-(indolin-1-yl)ethyl)morpholine] | — | > 10000 |  | — | — | 1330
7 | CC1Cc2ccccc2N1C(=O)CN1CCO[C@H](COc2cccc(Cl)c2)C1 (stereo partly shown) [Compound 64] | — | 4540 |  | — | — | 441
8 | CC1Cc2ccccc2N1C(=O)CN1CCO[C@@H](COc2cccc(Cl)c2)C1 (stereo partly shown) [Compound 65] | — | 1810 |  | — | — | 333
